Assay results from patent publication US20170196842A1, “METHODS OF TREATMENT USING A 1,2,4-OXADIAZOLE BENZOIC ACID” (PTC Therapeutics, Inc., priority 2014, published 2017).
Read-outs that look alike come from different tables or passages of the source.

Experiments:
[1] = Weight gain and food intake of mice given Compound 1 in chow; assay type: in vivo, C57BL/6J mice; settings: 1.0% (w/w) in chow
From the text: Mice receiving food containing 1.0% (w/w) Compound 1 are 45% less food than mice receiving the control chow. However, a reduction in weight gain would not be expected to elicit a reduction in tissue GAG levels in the pharmacology studies.

[2] = Pharmacokinetics of Compound 1 delivered via solid chow (plasma, LC-MS/MS); assay type: in vivo, C57BL/6J mice; settings: for Tmax / Tmin / Cmin / AUC / Cmax: C57BL/6J mice; for AUC / Cmax: C57BL/6J, mouse, plasma, po; for AUC: read-out: AUC9-10
Procedure: The pharmacokinetics of Compound 1 at three doses (0.1%, 0.3% or 1% (w/w)) when delivered via solid chow was determined in satellite wild type C57BL/6J mice. The first day Compound 1 was provided was defined as Day 0. On Day 3 and on Day 13 blood was obtained from mice at specified time points and the plasma concentration of Compound 1 was measured using liquid chromatography-tandem mass spectrometry.
AUC9-10 refers to area under the curve plotting plasma concentration over time (9 am to 10 pm) (hr·μg/mL); Cmax refers to maximal plasma concentration (μg/mL); Cmin refers to minimal plasma concentration (μg/mL); Tmax refers to the time at which the maximal plasma concentration was measured; and Tmin refers to the time at which the minimal plasma concentration was measured.

[3] = 0.1% (w/w) in chow, Day 3, clock time
[4] = 0.1% (w/w) in chow, Day 13, clock time
[5] = 0.3% (w/w) in chow, Day 3, clock time
[6] = 0.3% (w/w) in chow, Day 13, clock time
[7] = 1.0% (w/w) in chow, Day 3, clock time
[8] = 1.0% (w/w) in chow, Day 13, clock time

O=C(O)c1cccc(-c2noc(-c3ccccc3F)n2)c1 [Compound 1, 3-[5-(2-fluoro-phenyl)-[1,2,4]oxadiazol-3-yl]-benzoic acid]
Reduction of food intake versus control chow [1]: 45%
Weight gain versus 0.1%, 0.3% doses or vehicle ([1]; satellite PK study and Idua-W402X pharmacology studies): did not gain as much weight
Tmax [2, 3]: 10 pm
Tmin [2, 3]: 1 pm
Cmin ([2]; 0.1% (w/w) in chow, Day 3, plasma): 0.76 µg/mL
Tmax [2, 4]: 10 pm
Tmin [2, 4]: 1 pm
Cmin ([2]; 0.1% (w/w) in chow, Day 13, plasma): 1.0 µg/mL
Tmax [2, 5]: 10 pm
Tmin [2, 5]: 1 pm
Cmin ([2]; 0.3% (w/w) in chow, Day 3, plasma): 3.7 µg/mL
Tmax [2, 6]: 10 pm
Tmin [2, 6]: 9 am
Cmin ([2]; 0.3% (w/w) in chow, Day 13, plasma): 4.6 µg/mL
Tmax [2, 7]: 4 pm
Tmin [2, 7]: 1 pm
Cmin ([2]; 1.0% (w/w) in chow, Day 3, plasma): 21 µg/mL
Tmax [2, 8]: 4 pm
Tmin [2, 8]: 9 am
Cmin ([2]; 1.0% (w/w) in chow, Day 13, plasma): 19 µg/mL
AUC ([2]; 0.1 % (w/w) in chow, 0.1% (w/w) in chow, Day 3, 9 am to 10 pm): 35000 ng·h/mL
Cmax ([2]; 0.1 % (w/w) in chow, 0.1% (w/w) in chow, Day 3, plasma): 5200 ng/mL
AUC ([2]; 0.1 % (w/w) in chow, 0.1% (w/w) in chow, Day 13, 9 am to 10 pm): 28000 ng·h/mL
Cmax ([2]; 0.1 % (w/w) in chow, 0.1% (w/w) in chow, Day 13, plasma): 3600 ng/mL
AUC ([2]; 0.3 % (w/w) in chow, 0.3% (w/w) in chow, Day 3, 9 am to 10 pm): 109000 ng·h/mL
Cmax ([2]; 0.3 % (w/w) in chow, 0.3% (w/w) in chow, Day 3, plasma): 19000 ng/mL
AUC ([2]; 0.3 % (w/w) in chow, 0.3% (w/w) in chow, Day 13, 9 am to 10 pm): 89000 ng·h/mL
Cmax ([2]; 0.3 % (w/w) in chow, 0.3% (w/w) in chow, Day 13, plasma): 13000 ng/mL
AUC ([2]; 1 % (w/w) in chow, 1.0% (w/w) in chow, Day 3, 9 am to 10 pm): 420000 ng·h/mL
Cmax ([2]; 1 % (w/w) in chow, 1.0% (w/w) in chow, Day 3, plasma): 41000 ng/mL
AUC ([2]; 1 % (w/w) in chow, 1.0% (w/w) in chow, Day 13, 9 am to 10 pm): 594000 ng·h/mL
Cmax ([2]; 1 % (w/w) in chow, 1.0% (w/w) in chow, Day 13, plasma): 58000 ng/mL
Plasma concentrations (range over time points) ([2]; mice, 1.0% (w/w) in chow): 19 to 58 µg/mL
